Measurements from the CheMixHub viscosity set.
Values joined by “and” are separate entries in the source; they are usually repeats but may differ in a detail not shown here. Identical values can stand only once.

Test: xn = mol fraction of the nth substance listed

CN(C)C=O + CO
Conditions	viscosity
293.15 K, 101 kPa, x2 = 0.0998	0.835 mPa·s
293.15 K, 101 kPa, x2 = 0.2	0.809 mPa·s
293.15 K, 101 kPa, x2 = 0.3	0.782 mPa·s
293.15 K, 101 kPa, x2 = 0.4002	0.754 mPa·s
293.15 K, 101 kPa, x2 = 0.5	0.723 mPa·s
293.15 K, 101 kPa, x2 = 0.6	0.693 mPa·s
293.15 K, 101 kPa, x2 = 0.6997	0.665 mPa·s
293.15 K, 101 kPa, x2 = 0.8	0.64 mPa·s
293.15 K, 101 kPa, x2 = 0.8998	0.613 mPa·s
298 K, 101.3 kPa, x2 = 0.1198	0.766 mPa·s
298 K, 101.3 kPa, x2 = 0.2267	0.739 mPa·s
298 K, 101.3 kPa, x2 = 0.4094	0.693 mPa·s
298 K, 101.3 kPa, x2 = 0.5596	0.655 mPa·s
298 K, 101.3 kPa, x2 = 0.6854	0.623 mPa·s
298 K, 101.3 kPa, x2 = 0.7922	0.596 mPa·s
298 K, 101.3 kPa, x2 = 0.884	0.573 mPa·s
298 K, 101.3 kPa, x2 = 0.9639	0.553 mPa·s
298.15 K, 101 kPa, x1 = 0.3048	0.568 mPa·s
298.15 K, 101 kPa, x2 = 0.0998	0.782 mPa·s
298.15 K, 101 kPa, x2 = 0.2	0.758 mPa·s
298.15 K, 101 kPa, x2 = 0.3	0.734 mPa·s
298.15 K, 101 kPa, x2 = 0.4002	0.705 mPa·s
298.15 K, 101 kPa, x2 = 0.5	0.678 mPa·s
298.15 K, 101 kPa, x2 = 0.6	0.649 mPa·s
298.15 K, 101 kPa, x2 = 0.6997	0.622 mPa·s
298.15 K, 101 kPa, x2 = 0.8	0.596 mPa·s
298.15 K, 101 kPa, x2 = 0.8998	0.572 mPa·s
303.15 K, 101 kPa, x1 = 0.0995	0.5458 mPa·s
303.15 K, 101 kPa, x1 = 0.2004	0.5714 mPa·s
303.15 K, 101 kPa, x1 = 0.3004	0.5986 mPa·s
303.15 K, 101 kPa, x1 = 0.3993	0.6269 mPa·s
303.15 K, 101 kPa, x1 = 0.5008	0.6547 mPa·s
303.15 K, 101 kPa, x1 = 0.5728	0.6716 mPa·s
303.15 K, 101 kPa, x1 = 0.6998	0.7023 mPa·s
303.15 K, 101 kPa, x1 = 0.8014	0.7263 mPa·s
303.15 K, 101 kPa, x1 = 0.8996	0.7515 mPa·s
303.15 K, 101 kPa, x2 = 0.0998	0.736 mPa·s
303.15 K, 101 kPa, x2 = 0.2	0.713 mPa·s
303.15 K, 101 kPa, x2 = 0.3	0.688 mPa·s
303.15 K, 101 kPa, x2 = 0.4002	0.663 mPa·s
303.15 K, 101 kPa, x2 = 0.5	0.674 mPa·s and 0.636 mPa·s
303.15 K, 101 kPa, x2 = 0.6	0.608 mPa·s
303.15 K, 101 kPa, x2 = 0.6997	0.584 mPa·s
303.15 K, 101 kPa, x2 = 0.8	0.559 mPa·s
303.15 K, 101 kPa, x2 = 0.8998	0.534 mPa·s
308.15 K, 101 kPa, x1 = 0.0995	0.5094 mPa·s
308.15 K, 101 kPa, x1 = 0.2004	0.5345 mPa·s
308.15 K, 101 kPa, x1 = 0.3004	0.5606 mPa·s
308.15 K, 101 kPa, x1 = 0.3993	0.5882 mPa·s
308.15 K, 101 kPa, x1 = 0.5008	0.6152 mPa·s
308.15 K, 101 kPa, x1 = 0.5728	0.6314 mPa·s
308.15 K, 101 kPa, x1 = 0.6998	0.6621 mPa·s
308.15 K, 101 kPa, x1 = 0.8014	0.6853 mPa·s
308.15 K, 101 kPa, x1 = 0.8996	0.7087 mPa·s
313.15 K, 101 kPa, x1 = 0.0995	0.4776 mPa·s
313.15 K, 101 kPa, x1 = 0.2004	0.5008 mPa·s
313.15 K, 101 kPa, x1 = 0.3004	0.5259 mPa·s
313.15 K, 101 kPa, x1 = 0.3993	0.5524 mPa·s
313.15 K, 101 kPa, x1 = 0.5008	0.5781 mPa·s
313.15 K, 101 kPa, x1 = 0.5728	0.5933 mPa·s
313.15 K, 101 kPa, x1 = 0.6998	0.6213 mPa·s
313.15 K, 101 kPa, x1 = 0.8014	0.644 mPa·s
313.15 K, 101 kPa, x1 = 0.8996	0.667 mPa·s
313.15 K, 101 kPa, x2 = 0.0998	0.655 mPa·s
313.15 K, 101 kPa, x2 = 0.2	0.635 mPa·s
313.15 K, 101 kPa, x2 = 0.3	0.612 mPa·s
313.15 K, 101 kPa, x2 = 0.4002	0.589 mPa·s
313.15 K, 101 kPa, x2 = 0.5	0.58 mPa·s and 0.565 mPa·s
313.15 K, 101 kPa, x2 = 0.6	0.54 mPa·s
313.15 K, 101 kPa, x2 = 0.6997	0.517 mPa·s
313.15 K, 101 kPa, x2 = 0.8	0.493 mPa·s
313.15 K, 101 kPa, x2 = 0.8998	0.47 mPa·s
318.15 K, 101 kPa, x1 = 0.0995	0.4467 mPa·s
318.15 K, 101 kPa, x1 = 0.2004	0.4692 mPa·s
318.15 K, 101 kPa, x1 = 0.3004	0.4936 mPa·s
318.15 K, 101 kPa, x1 = 0.3993	0.5191 mPa·s
318.15 K, 101 kPa, x1 = 0.5008	0.5439 mPa·s
318.15 K, 101 kPa, x1 = 0.5728	0.5587 mPa·s
318.15 K, 101 kPa, x1 = 0.6998	0.5861 mPa·s
318.15 K, 101 kPa, x1 = 0.8014	0.6075 mPa·s
318.15 K, 101 kPa, x1 = 0.8996	0.6304 mPa·s
323.15 K, 101 kPa, x1 = 0.0995	0.4174 mPa·s
323.15 K, 101 kPa, x1 = 0.2004	0.4387 mPa·s
323.15 K, 101 kPa, x1 = 0.3004	0.4617 mPa·s
323.15 K, 101 kPa, x1 = 0.3993	0.4864 mPa·s
323.15 K, 101 kPa, x1 = 0.5008	0.51 mPa·s
323.15 K, 101 kPa, x1 = 0.5728	0.5243 mPa·s
323.15 K, 101 kPa, x1 = 0.6998	0.5501 mPa·s
323.15 K, 101 kPa, x1 = 0.8014	0.5705 mPa·s
323.15 K, 101 kPa, x1 = 0.8996	0.5923 mPa·s
323.15 K, 101 kPa, x2 = 0.0998	0.588 mPa·s
323.15 K, 101 kPa, x2 = 0.2	0.569 mPa·s
323.15 K, 101 kPa, x2 = 0.3	0.549 mPa·s
323.15 K, 101 kPa, x2 = 0.4002	0.528 mPa·s
323.15 K, 101 kPa, x2 = 0.5	0.503 mPa·s and 0.506 mPa·s
323.15 K, 101 kPa, x2 = 0.6	0.483 mPa·s
323.15 K, 101 kPa, x2 = 0.6997	0.46 mPa·s
323.15 K, 101 kPa, x2 = 0.8	0.438 mPa·s
323.15 K, 101 kPa, x2 = 0.8998	0.415 mPa·s
